Assay [1] has as its system DU-145 human prostate cancer cells. Description: Antiproliferative assay. The format is cell-based. To be noted: for GI50: read-out: GI50 DU-145; for Fold less active than 20b: DU-145 and MDA MB-231.
The subject of assay [2] is MDA MB-231 human breast cancer cells. Description: Antiproliferative assay. The format is cell-based. To be noted: for GI50: read-out: GI50 MDA MB-231.
Assay [3] has as its system Bovine brain tubulin. Description: Inhibition of tubulin assembly. The format is biochemical. To be noted: read-out: Tubulin assembly IC50; 10 μM tubulin; mean ±SD of at least two determinations.
Assay [4] has as its system NCI 60-cell line panel. Description: NCI-60 cell line assay, mean over all 60 cell lines. The format is cell-based. To be noted: for MGM: mean concentration that caused 50% growth inhibition in all 60 cell lines.
The test system of assay [5] is Ovarian OVCAR-3. Description: NCI-60 cell line assay, Ovarian OVCAR-3. To be noted: Homo sapiens, OVCAR-3, read-out: GI50 Ovarian OVCAR-3. The format is cell-based.
In assay [6] the test system is Colon HCT-116. Description: NCI-60 cell line assay, Colon HCT-116. To be noted: Homo sapiens, HCT-116, read-out: GI50 Colon HCT-116. The format is cell-based.
Assay [7] has as its system Bovine brain tubulin. Description: Inhibition of [3H]colchicine binding to tubulin. To be noted: 1.0 μM tubulin, 5.0 μM [3H]colchicine, mean ±SD.
Assay [8] deals with Melanoma UACC-62. Description: NCI-60 cell line assay, Melanoma UACC-62. The format is cell-based. To be noted: Homo sapiens, UACC-62, read-out: GI50 Melanoma UACC-62.
In assay [9] the test system is Lung HOP-62. Description: NCI-60 cell line assay, Lung HOP-62. The format is cell-based. To be noted: Homo sapiens, HOP-62, read-out: GI50 Lung HOP-62.
In assay [10] the test system is Renal SN12-C. Description: NCI-60 cell line assay, Renal SN12-C. The format is cell-based. To be noted: Homo sapiens, SN12C, read-out: GI50 Renal SN12-C.
In assay [11] the test system is various cancer lines in sealed polyvinylidine fluoride fibres implanted i.p. or s.c. Description: NCI hollow fibre assay. To be noted: mice; for Hollow fibre assay score (maximum 96): total score.
The mark [12] stands for this setting: mean of three determinations, 96 h.

We go through 22 compounds from PMC4145847 (ChemMedChem, 2014).

Where two headings read alike, the source gives them in different places.

What is called GI50 is the concentration giving 50% growth inhibition. Turning to `COc1cc(CN2CCc3cc(OCc4ccccc4)ccc3C2)cc(OC)c1OC` [Compound 20a, 6-Benzyloxy-2-(3,4,5-trimethoxybenzyl)-1,2,3,4-tetrahydroisoquinoline], the GI50 in assay [1] (Homo sapiens, DU-145, 96 h) was over 100000 nM; in assay [2] (Homo sapiens, MDA-MB-231, 96 h), over 100000 nM.

With `COc1cc2c(cc1OS(C)(=O)=O)CCN(Cc1cc(OC)c(OC)c(OC)c1)C2` [Compound 17c, 7-Methoxy-6-methanesulfonyloxy-2-(3,4,5-trimethoxybenzyl)-1,2,3,4-tetrahydroisoquinoline], the GI50 is 220 nM in assay [1] (Homo sapiens, DU-145, 96 h) and 188 nM in [2] (Homo sapiens, MDA-MB-231, 96 h).

For `COc1ccc2c(c1)CCN(Cc1cc(OC)c(OC)c(OC)c1)C2` [Compound 20c, 6-Methoxy-2-(3,4,5-trimethoxybenzyl)-1,2,3,4-tetrahydroisoquinoline], in [1], the “Fold less active than 20b” value was 20- to 200 fold. Further, the GI50 in [1] (Homo sapiens, DU-145, 96 h) amounted to 31000 nM; in assay [2] (Homo sapiens, MDA-MB-231, 96 h) it was 4890 nM.

What is called IC50 is the concentration at which inhibition is half-maximal. For `COc1cc2c(cc1OS(N)(=O)=O)CCN(Cc1cc(Cl)c(OC)c(OC)c1)C2` [Compound 12e, 2-(3-Chloro-4,5-dimethoxybenzyl)-7-methoxy-6-sulfamoyloxy-1,2,3,4-tetrahydroisoquinoline], the IC50 in assay [3] was 5600 ± 700 nM. In assay [4] (NCI 60-cell line assay, stated in abstract), this compound returned an MGM values of about 40 nM. The same compound displayed an MGM in [4] of 0.039 µM. For the same compound, the “Increase in antiproliferative activity relative to 4a” value in assay [1] (DU-145) is given as 8- to 10 fold. Also, the GI50 was found to be 20 nM in [5]; 39 nM in assay [6]; 25 nM in assay [8]; 56 nM in assay [9]; 66 nM in assay [10]. Also, the “Colchicine binding Inhibition at 5 μM inhibitor” value (“Colchicine binding Inhibition” for short) in [7] was found to be 32 ±3%.

Regarding `CCc1cc2c(cc1OS(N)(=O)=O)CCN(Cc1cc(Br)c(OC)c(OC)c1)C2` [Compound 15, 2-(3-Bromo-4,5-dimethoxybenzyl)-7-ethyl-6-sulfamoyloxy-1,2,3,4-tetrahydroisoquinoline], in assay [3], the IC50 was determined as 1800 ± 40 nM. Besides, the GI50 was 20 nM in assay [1] (Homo sapiens, DU-145, 96 h) and 30 nM in assay [2] (Homo sapiens, MDA-MB-231, 96 h). Besides, in [7], the “Colchicine binding Inhibition” value was determined as 78±2%.

For the compound `COc1cc2c(cc1O)CC(C)N(Cc1cc(Br)c(OC)c(OC)c1)C2` (racemic) [Compound 11j, (±)-2-(3-Bromo-4,5-dimethoxybenzyl)-6-hydroxy-7-methoxy-3-methyl-1,2,3,4-tetrahydroisoquinoline], the GI50 in assay [1] (setting [12]) turned out to be 400 nM; in [2] (setting [12]) it was 300 nM.

For `COc1cc(CN2CCc3cc(O)ccc3C2)cc(OC)c1OC` [Compound 20b, 6-Hydroxy-2-(3,4,5-trimethoxybenzyl)-1,2,3,4-tetrahydroisoquinoline], the IC50 in assay [3] is 1600 ± 100 nM. Also, the MGM in [4] stood at 0.045 µM. For the same compound, the GI50 in [1] (Homo sapiens, DU-145, 96 h) amounted to 151 nM; in assay [5] it was 19 nM; in assay [6] it was 35 nM; in assay [2] (Homo sapiens, MDA-MB-231, 96 h), 227 nM; in assay [8] it was 49 nM; in assay [9], 62 nM. Moreover, in assay [10], the GI50 is 49 nM. Also, in assay [7], the “Colchicine binding Inhibition” value stood at 73±3%.

For `COc1cc2c(cc1OC)CN(Cc1cc(OC)c(OC)c(OC)c1)CC2` [Compound 17a, 6,7-Dimethoxy-2-(3,4,5-trimethoxybenzyl)-1,2,3,4-tetrahydroisoquinoline], the GI50 in [1] (Homo sapiens, DU-145, 96 h) is over 100000 nM; in [2] (Homo sapiens, MDA-MB-231, 96 h), 77600 nM. In assay [2] (MDA MB-231), the “Fold less active than 3a” value was determined as 120 fold.

Take `COc1cc(CN2CCc3cc(O)ccc3C2)cc(Cl)c1OC` [Compound 20e, 2-(3-Chloro-4,5-dimethoxybenzyl)-6-hydroxy-1,2,3,4-tetrahydroisoquinoline]: in assay [1], the “Fold less active than 20b” value is listed as 100- to 600 fold. Besides, the 50% growth inhibitory concentration (GI50) was 86000 nM in assay [1] (Homo sapiens, DU-145, 96 h) and 74000 nM in [2] (Homo sapiens, MDA-MB-231, 96 h).

Consider `COc1cc2c(cc1OS(N)(=O)=O)CCN(Cc1cc(Br)c(OC)c(OC)c1)C2` [Compound 12f, 2-(3-Bromo-4,5-dimethoxybenzyl)-7-methoxy-6-sulfamoyloxy-1,2,3,4-tetrahydroisoquinoline], for which the IC50 in assay [3] was 2400 ± 400 nM. Moreover, in [4], the MGM was determined as 0.044 µM. Moreover, the GI50 in [5] came to 18 nM; in assay [6], 38 nM; in [8], 28 nM; in assay [9] it was 80 nM; in [10] it was 55 nM. Besides, the “Hollow fibre assay score for i.p. fibres” value in assay [11] (dosed i.p. at 75 mg/kg) was found to be 16. In assay [11] (dosed i.p. at 75 mg/kg), the “Hollow fibre assay score for s.c. fibres” value is given as 18. Further, the “Hollow fibre assay score (maximum 96)” value in assay [11] (dosed i.p. at 75 mg/kg) is recorded as 34. Also, the “Colchicine binding Inhibition” value in assay [7] stood at 45 ±0.6%.

Take `COc1cc(C(=O)N2CCc3cc(O)ccc3C2)cc(OC)c1OC` [Compound 20i, 6-Hydroxy-2-(3,4,5-trimethoxybenzoyl)-1,2,3,4-tetrahydroisoquinoline]: the GI50 in assay [1] (Homo sapiens, DU-145, 96 h) is over 100000 nM; in assay [2] (Homo sapiens, MDA-MB-231, 96 h) it was over 100000 nM.

Take `COc1cc2c(cc1O)CCN(Cc1cc(Br)c(OC)c(OC)c1)C2` [Compound 11f, 2-(3-Bromo-4,5-dimethoxybenzyl)-6-hydroxy-7-methoxy-1,2,3,4-tetrahydroisoquinoline]: the MGM in assay [4] came out at 0.38 µM. Also, the GI50 in assay [5] was 74 nM; in [6] it was 143 nM; in assay [8], 305 nM; in [9], 353 nM; in [10] it was 768 nM. In addition, the “Hollow fibre assay score (maximum 96)” value in assay [11] (dosed i.p. at 150 mg/kg) worked out at 2.

Turning to `CCOc1cc(CN2CCc3cc(O)ccc3C2)cc(OCC)c1OCC` [Compound 20h, 6-Hydroxy-2-(3,4,5-triethoxybenzyl)-1,2,3,4-tetrahydroisoquinoline], the GI50 in assay [1] (Homo sapiens, DU-145, 96 h) was over 100000 nM; in assay [2] (Homo sapiens, MDA-MB-231, 96 h), over 100000 nM.

`CCc1cc(CN2CCc3cc(OS(N)(=O)=O)c(OC)cc3C2)cc(CC)c1CC` [Compound 12i, 7-Methoxy-6-sulfamoyloxy-2-(3,4,5-triethylbenzyl)-1,2,3,4-tetra-hydroisoquinoline] registered an MGM in assay [4] of 1.17 µM. Besides, the GI50 amounted to 209 nM in assay [5]; 1050 nM in assay [6]; 592 nM in [8]; 2450 nM in assay [9]; 5290 nM in assay [10].

For `COc1cc(CN2CCc3cc(O)ccc3C2)cc(Br)c1OC` [Compound 20f, 2-(3-Bromo-4,5-dimethoxybenzyl)-6-hydroxy-1,2,3,4-tetrahydroisoquinoline], the GI50 in assay [1] (Homo sapiens, DU-145, 96 h) is 35000 nM; in assay [2] (Homo sapiens, MDA-MB-231, 96 h), 25000 nM.

In the case of `COc1cc2c(cc1OS(N)(=O)=O)CC(C)N(Cc1cc(Br)c(OC)c(OC)c1)C2` (racemic) [Compound 12j, (±)-2-(3-Bromo-4,5-dimethoxybenzyl)-7-methoxy-3-methyl-6-sulfamoyloxy-1,2,3,4-tetrahydroisoquinoline], the half-maximal inhibitory concentration (IC50) in [3] worked out at 2400 ± 200 nM. In addition, the GI50 in assay [1] (setting [12]) was 50 nM; in [2] (setting [12]), 40 nM. The “Colchicine binding Inhibition” value in assay [7] stood at 50 ±4%.

On to `COc1cc(CN2CCc3cc(OS(N)(=O)=O)ccc3C2)cc(OC)c1OC` [Compound 20d, 6-Sulfamoyloxy-2-(3,4,5-trimethoxybenzyl)-1,2,3,4-tetrahydroisoquinoline], for which the GI50 in assay [1] (Homo sapiens, DU-145, 96 h) was over 100000 nM; in assay [2] (Homo sapiens, MDA-MB-231, 96 h) it was over 100000 nM.

As to `COc1cc2c(cc1OC(C)=O)CCN(Cc1cc(OC)c(OC)c(OC)c1)C2` [Compound 17b, 6-Acetoxy-7-methoxy-2-(3,4,5-trimethoxybenzyl)-1,2,3,4-tetrahydroisoquinoline], the GI50 was determined as 407 nM in assay [1] (Homo sapiens, DU-145, 96 h) and 340 nM in assay [2] (Homo sapiens, MDA-MB-231, 96 h).

`CCc1cc2c(cc1O)CCN(Cc1cc(Br)c(OC)c(OC)c1)C2` [Compound 14, 2-(3-Bromo-4,5-dimethoxybenzyl)-7-ethyl-6-hydroxy-1,2,3,4-tetrahydroisoquinoline]: the GI50 in assay [1] (Homo sapiens, DU-145, 96 h) is 1200 nM; in assay [2] (Homo sapiens, MDA-MB-231, 96 h), 400 nM.

As to `CCOc1c(OC)cc(CN2CCc3cc(O)ccc3C2)cc1OC` [Compound 20g, 2-(3,5-Dimethoxy-4-ethoxybenzyl)-6-hydroxy-1,2,3,4-tetrahydroisoquinoline], the GI50 is over 100000 nM in assay [1] (Homo sapiens, DU-145, 96 h) and over 100000 nM in assay [2] (Homo sapiens, MDA-MB-231, 96 h).

With `COc1cc(CCN2CCc3cc(O)ccc3C2)cc(OC)c1OC` [Compound 20j, 6-Hydroxy-2-(3,4,5-trimethoxyphenethyl)-1,2,3,4-tetrahydroisoquinoline], the GI50 is over 100000 nM in assay [1] (Homo sapiens, DU-145, 96 h) and over 100000 nM in assay [2] (Homo sapiens, MDA-MB-231, 96 h).

Turning to `COc1cc2c(cc1O)CCN(Cc1cc(Cl)c(OC)c(OC)c1)C2` [Compound 11e, 2-(3-Chloro-4,5-dimethoxybenzyl)-6-hydroxy-7-methoxy-1,2,3,4-tetrahydroisoquinoline], the MGM in assay [4] was 0.501 µM. Moreover, the concentration for 50% growth inhibition (GI50) in assay [5] was 187 nM; in assay [6], 474 nM; in assay [8], 350 nM; in [9], 869 nM; in [10], 910 nM.
